This is an account of results in publication PMC7560154, “Novel Antimicrobial Peptide from Temporin L in The Treatment of Staphylococcus pseudintermedius and Malassezia pachydermatis in Polymicrobial Inter-Kingdom Infection” (Antibiotics, 2020).

One data set deals with MRSP biofilm formation. Nature of the data set: Biofilm formation, crystal violet assay, MRSP. Format: cell-based, Staphylococcus pseudintermedius. The following applies: sub-MIC 0.095 to 0.78 μM, 24 h. The method, then:
(§1) Anti-biofilm activity of peptide 8 was examined by the crystal violet assay previously described with minor modifications. Microtiter plates were inoculated with bacteria at a final density of 10^6 CFU/mL and treated with peptide 8 ranging from 0.095 to 0.78 μM. Control cells were grown in the absence of peptide 8. After 24 h incubation at 37 °C, the supernatant was gently removed, and the wells were rinsed twice with PBS. The amount of biofilm formed in the wells was measured by crystal violet staining and the absorbance of the solution was measured at 595 nm.

For another data set, the system named is MRSP. Nature of the data set: Checkerboard synergy of peptide 8 and oxacillin. Format: cell-based, Staphylococcus pseudintermedius. As to conditions: MRSP. The method, then: The interaction between peptide 8 and oxacillin against MRSP was evaluated by the checkerboard method. Briefly, twofold serial dilutions of oxacillin distributed in horizontal rows of 96-well microtiter plate were cross-diluted vertically by twofold serial dilutions of peptide 8 to at least double the MIC. The peptide 8 tested concentration ranging from 0.19 to 12.5 μM and oxacillin from 1.25 to 25 μM (0.5 to 10 μg/mL). Microtiter plates were inoculated with bacteria at an approximate concentration of 10^5 CFU/mL and incubated at 37 °C for 24 h. […] To evaluate the effect of the combination treatment, the fractional inhibitory concentration (FIC) index for each combination was calculated as follows: FIC index = FIC of peptide 8 + FIC of oxacillin, where FIC of peptide 8 (or oxacillin) was defined as the ratio of MIC of peptide 8 (or oxacillin) in combination and MIC of peptide 8 (or oxacillin) alone. The FIC index values were interpreted as follows: ≤0.5, synergistic; >0.5 to ≤1.0, additive; >1.0 to ≤2.0, indifferent; and >2.0, antagonistic effects.

A further data set has as its system MSSP mature biofilm. The data set can be described thus: Mature biofilm biomass, crystal violet assay, MSSP. Format: cell-based, Staphylococcus pseudintermedius. As to conditions: MSSP one-day-old biofilm, up to 25 μM, 24 h. As to the method: (§2) Biofilms were allowed to form in each well of a 96-well microtiter plate, as described by Stepanovic. After 24 h, planktonic cells were aspirated, and the plates were washed with 200 μL of PBS. Cells biofilms were exposed to 200 μL of peptide 8 at the final concentration ranging from 6.25 to 25 μM and the plate was further incubated for 24 h at 37 °C. Positive controls were non-treated cells incubated with 200 μL of medium broth. At the end of the experiment crystal violet-staining was performed to assess biofilm mass.

The next data set has as its system circulating blood cells. As to conditions: cited from earlier work.
The conditions of data set [1]: ref unpublished results, cited from earlier work.
The test system of data set [2] is methicillin-susceptible S. pseudintermedius (MSSP). Nature of the data set: Time-kill assay, MSSP. Format: cell-based, Staphylococcus pseudintermedius. The method, then: Time kill assay was carried out as previously described. […] Plates were incubated at 37 °C on an orbital shaker at 120 rpm. Viability assessments were performed at 0, 2, 4, 6 and 24 h by plating 0.01 mL undiluted and 10-fold serially diluted samples onto Mueller–Hinton plates in triplicate. After overnight incubation at 37 °C, bacterial colonies were counted and compared with counts from control cultures.

For data set [3] the following is noted: in vivo model of acute inflammation; cited from earlier work.
A further data set relates to M. pachydermatis. Nature of the data set: Resistance acquisition test (serial subculture with sublethal peptide 8). Format: cell-based, Malassezia pachydermatis. The method, then: To evaluate if the yeast acquired resistance to the drug, after a continued treatment, M. pachydermatis was subcultured with a sub lethal concentration of peptide 8 (1/2 MIC). Briefly, a final 3.12 μM peptide 8 concentration was added to yeast inoculum suspension equivalent to 1–3 × 10^6 CFU/mL in Sabouraud dextrose broth (SB) and incubated 72 h at 30 °C (inoculum 1). After this period, optical density was measured and a new yeast subculture with 3.12 μM of peptide 8 was prepared starting from inoculum 1 (inoculum 2). Three days after, optical density was again recorded and a new inoculum in presence of peptide 8 prepared. This was repeated until evident yeast death was observed.

For data set [4], the system named is MRSP mature biofilm. Nature of the data set: Mature biofilm metabolic activity, XTT assay, MRSP. Type of data set: cell-based, Staphylococcus pseudintermedius. As to conditions: 24 h. As to the method:
The metabolic activity of MSSP and MRSP mature biofilms was quantified by the XTT [2,3-bis(2-methyloxy-4-nitro-5-sulfophenyl)-2H-tetrazolium-5-carboxanilide] (Roche Diagnostics, Germany) reduction assay. The assay was conducted as previously described with some modifications. XTT (150 µL) was added to biofilms in each well and the plates were incubated for 40 min at 37 °C in the dark. The reduction of the tetrazolium salt by cellular dehydrogenase into orange formazan dye was photometrically measured at 490 nm. The medium was set as negative control. Viability values for each well were compared to controls.

The test system of a further data set is MSSP biofilm formation. The data set can be described thus: Biofilm formation, crystal violet assay, MSSP. Format: cell-based, Staphylococcus pseudintermedius. As to conditions: sub-MIC 0.095 to 0.78 μM, 24 h. As to the method: as §1
Data set [5] deals with MRSP mature biofilm. The data set can be described thus: Confocal laser scanning microscopy of mature biofilm (LIVE/DEAD). Format: cell-based, Staphylococcus pseudintermedius. The following applies: MRSP 1-day-old biofilm, 24 h; 12.5 μM in method, 32 μg/mL in Figure 4 legend. As to the method: CLSM was used to confirm the effect of peptide 8 on mature biofilm respect the controls. MSRP were grown in chambered cover glass (μ Slide 4 well; ibidi GmbH, Germany) in a static condition for 24 h. Peptide 8 was added on a 1-day-old biofilm at 12.5 μM. Bacterial suspensions incubated with medium alone were used as a positive control. After 24 h, biofilms were rinsed with PBS and stained by using a LIVE/DEAD® BacLight Bacteria Viability stains (Life Technologies, Italy). After the staining, the images were observed using a LSM 700 inverted confocal laser-scanning microscope (Zeiss, Italy). The areas were scanned using a 10X objective lens with the signal recorded in the green channel for Syto9 (excitation 488 nm, emission 500–525 nm) and in red channel for PI (excitation 500–550 nm, emission 610–650 nm).

The test system of data set [6] is MRSP mature biofilm. The data set can be described thus: Mature biofilm biomass, crystal violet assay, MRSP. Format: cell-based, Staphylococcus pseudintermedius. As to conditions: MRSP one-day-old biofilm, up to 25 μM, 24 h. As to the method:
as §2

Where a SMILES comes first, the peptide text is derived from it. [ ]: non-standard residue; d: D form.

Consider `CC[C@H](C)[C@H](NC(=O)[C@H](CCCNC(=N)N)NC(=O)[C@@H](CCCCN)NC(=O)[C@@H](CC(C)C)NC(=O)[C@H](Cc1ccccc1)NC(=O)[C@H](CCCCN)NC(=O)[C@H](CO)NC(=O)[C@H](Cc1ccccc1)NC(=O)[C@H](Cc1c[nH]c2ccccc12)NC(=O)[C@@H]1CCCN1C(=O)[C@@H](NC(=O)[C@@H](N)Cc1ccccc1)C(C)C)C(=O)N[C@@H](CC(C)C)C(N)=O` [Peptide 8] (H-FVPWFSKF[dL][dK]RIL-NH2; N-terminus assumed), for which the “Effect on biofilm formation” value in the data set on MRSP biofilm formation and with MSSP biofilm formation was “ineffective” in each case. Further, the FICindex in the data set on MRSP (peptide 8 + oxacillin, checkerboard, 37 °C 24 h, ≤0.5 synergistic) amounted to 0.37. For the same compound, in the data set on MRSP (with 3.1 μM oxacillin, 1/4 MIC), the “Concentration of peptide 8 in the most synergistic combination” value amounted to 1.56 µM. Moreover, the “Effect on mature biofilm biomass” value with MSSP mature biofilm and with MRSP mature biofilm [6] was “did not affect the biomass” each time. The Hemolytic activity result in the data set on circulating blood cells is listed as “did not show hemolytic activity”. For the same compound, in data set [1] (aqueous solution), the “Aggregation state and conformation in aqueous solution” value was “monomeric with a random coil conformation”. Further, in [1] (membrane mimetic environments), the “Aggregation in membrane mimetic environments” value was “significant ability to aggregate”. Moreover, in data set [2] (peptide at MIC value, 37 °C, 0 h, three independent experiments in triplicate), the “Log10CFU/mL 0 h” value amounted to 5.45 ± 0.25 Log10CFU/mL. Moreover, the “Log10CFU/mL 1 h” value in data set [2] (peptide at MIC value, 1 h) is listed as 0.60 ± 0.12 Log10CFU/mL. In [2] (peptide at MIC value, 2 h), the “Log10CFU/mL 2 h” value turned out to be 0.58 ± 0.32 Log10CFU/mL. Also, the “Log10CFU/mL 4 h” value in data set [2] (peptide at MIC value, 4 h) came out at 0.89 ± 0.15 Log10CFU/mL. The “Log10CFU/mL 6 h” value in data set [2] (peptide at MIC value, 6 h) turned out to be 0.46 ± 0.15 Log10CFU/mL. Further, the “Log10CFU/mL 24 h” value in [2] (peptide at MIC value, 24 h) is recorded as 4.97 ± 0.30 Log10CFU/mL. In addition, the “Bactericidal or bacteriostatic activity” value in [2] (time-kill at MIC value) is listed as “bacteriostatic”. In data set [3], the Anti-inflammatory activity entry is reported as “potent anti-inflammatory activity”. Besides, the “Log10 CFU/Ml After 15 Generation Subcultures Including TL48” value in the data set with M. pachydermatis (3.12 μM (1/2 MIC), 15 subcultures (about 2 months), three independent experiments in triplicate) came out at 2.10 ± 0.12 Log10 CFU/Ml. For the same compound, in the data set with M. pachydermatis (3.12 μM (1/2 MIC), Sabouraud dextrose broth, 72 h at 30 °C per subculture, three independent experiments in triplicate), the “Log10 CFU/Ml After 1 Generation Subculture Including TL48” value amounted to 5.80 ± 0.25 Log10 CFU/Ml. Moreover, in the data set with M. pachydermatis (2 months of repeated sublethal concentration treatment), the “Acquisition of resistance after prolonged treatment” value is “did not acquire resistance”. The “Reduction of biofilm viability” value in the data set with MRSP mature biofilm [4] (6.25 μM) amounted to 38%; in the data set with MRSP mature biofilm [4] (12.5 μM) it was 52%. The “Effect on biofilm viability at 25 μM” value with MRSP mature biofilm [4] (25 μM) was “reduced effect”. The “Effect on cells within mature biofilm (LIVE/DEAD staining)” value with MRSP mature biofilm [5] is “killed or damaged”.
